The record followed here is US20210228562A1, “IRAK DEGRADERS AND USES THEREOF” (Kymera Therapeutics, Inc., priority 2019, published 2021).

Structures are written as SMILES.

Common to all, as to assay type: cell-based
The test system of assay [1] is OCI-LY10 cells. Kind of assay: CTG Cell Viability Assay - OCI-LY10. To be noted: Homo sapiens, 96 h, CellTiter-Glo, 4 days incubation. Here is the method: Compound-mediated viability effect on OCI-LY10 or SUDHL-2 was quantitatively determined using the CellTiter-Glo® Luminescent Cell Viability Assay kit from Promega (Catalog number G7570) following manufacturer's recommended procedures. Briefly, OCI-LY10 or SUDHL-2 cells were seeded into 384 well plates (Grenier Bio-One, Catalog number 781080) with a density of 10,000 cells per well. Compounds were then added to the assay plate with final top concentration of 10 μM and 1:3 dilution series with total of 9 doses. The final DMSO concentration was normalized to 0.2%. The assay plates were incubated at 37° C. for 4 days under 5% CO2. Then the assay plate was equilibrated at room temperature for 10 minutes. To determine cell viability, 30 μL CellTiter Glo reagent was added to each well and the assay plate was centrifuged at 1000 rpm for 30 second, incubated at room temperature for 10 min, and analyzed by detecting the luminescence using a multimode plate reader (EnVision 2105, PerkinElmer). The data was then analyzed by software Prism 7.0 from GraphPad and the dose response curves were fit using a three-parameter logistic equation to calculate IC50.
On the technique in general: Cellular ATP, detected with luciferase, serves as a proxy for viable cell number.

Assay [2] deals with T1, IRAK4 (Homo sapiens, UniProt Q9NWZ3).
T1 construct: endogenous in cells; host or cells: OCI-LY10
T1 sequence (Q9NWZ3 1-460): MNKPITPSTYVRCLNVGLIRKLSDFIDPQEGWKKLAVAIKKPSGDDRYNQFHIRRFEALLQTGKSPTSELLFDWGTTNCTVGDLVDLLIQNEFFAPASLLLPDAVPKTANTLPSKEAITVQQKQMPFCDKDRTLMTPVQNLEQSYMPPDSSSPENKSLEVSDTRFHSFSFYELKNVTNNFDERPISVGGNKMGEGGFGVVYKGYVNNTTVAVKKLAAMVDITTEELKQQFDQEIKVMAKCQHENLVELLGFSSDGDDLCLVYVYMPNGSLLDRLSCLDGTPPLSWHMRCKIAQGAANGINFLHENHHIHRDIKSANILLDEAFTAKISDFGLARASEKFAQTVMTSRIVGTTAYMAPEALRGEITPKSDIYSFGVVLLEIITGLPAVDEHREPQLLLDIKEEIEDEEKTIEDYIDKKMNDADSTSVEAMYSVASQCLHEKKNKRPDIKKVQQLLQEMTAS
Kind of assay: IRAK4 MSD Degradation in OCI-LY10. To be noted: OCI-LY10 cells, 24 hrs incubation; read-out: IRAK4 degradation in OCI-LY10 at 24 hrs: DC50. Here is the method: Degradation of IRAK4 in OCI-LY10 was quantitatively measured using Meso Scale Discovery technology. OCI-LY10 cells were seeded in 96-well plates (Corning 3799) with a density of 300,000 cells per well in 100 μL fresh media. Compounds were then added to the assay plates with a final top concentration of 1 to 10 μM in a 1:3 dilution series with total of 8 doses. The assay plates were then incubated for 4 to 24 hours at 37° C. under 5% CO2. The assay plates were then centrifuged for 5 minutes and the cell pellets were treated with 100 μL/well RIPA lysis buffer (Boston BioProducts BP-115D) with proteinase inhibitors. To prepare MSD assay plates (Meso Scale Discovery Catalog number L15XA-3), the plates were coated with 2 μg/mL capture antibody (mouse Anti-IRAK4 antibody [2H9], ab119942) in PBS, at 40 μL/well. The plates were then incubated overnight at 4° C., washed 3 times with 150 μL/well TBST buffer (Cell Signaling Technology, Catalog number 9997S) and blocked with 150 μL/well blocking buffer (Meso Scale Discovery Catalog number R93BA-4). Cell lysates were then added to MSD assay plates and the plates were incubated at room temperature for 1 hour. The plates were then washed 3 times with 150 μL/well TBST buffer and 25 μL/well primary detection antibody (rabbit Anti-IRAK4 antibody [Y279], from Abcam. Catalog number ab32511, 1 μg/mL). The assay plates were then incubated at room temperature for 1 hour, washed 3 times with 150 μL/well TBST buffer and 25 μL/well secondary detection antibody, SULFO-TAG anti-rabbit antibody were added (anti rabbit antibody from Meso Scale Discovery, Catalog number R32AB-1, 1 μg/mL). The assay plates were then incubated at room temperature for 1 hour, washed 3 times with 150 μL/well TBST buffer, and 150 μL/well MSD reading buffer (Meso Scale Discovery catalog number R92TC-2) was added. The plates were then analyzed by a MSD reader (Meso Scale Discovery, Model Quick Plex SQ 120). The data was then analyzed by software Prism 7.0 from GraphPad and the dose-depended IRAK4 degradation were fit using a three-parameter logistic equation to calculate DC50.

Assay [3] deals with T2, Ikaros (protein product of gene IKZF1) (Homo sapiens, UniProt Q13422+Q96SW2).
T2 construct: endogenous in cells; host or cells: OCI-LY10
T2 sequence (Q13422 whole entry): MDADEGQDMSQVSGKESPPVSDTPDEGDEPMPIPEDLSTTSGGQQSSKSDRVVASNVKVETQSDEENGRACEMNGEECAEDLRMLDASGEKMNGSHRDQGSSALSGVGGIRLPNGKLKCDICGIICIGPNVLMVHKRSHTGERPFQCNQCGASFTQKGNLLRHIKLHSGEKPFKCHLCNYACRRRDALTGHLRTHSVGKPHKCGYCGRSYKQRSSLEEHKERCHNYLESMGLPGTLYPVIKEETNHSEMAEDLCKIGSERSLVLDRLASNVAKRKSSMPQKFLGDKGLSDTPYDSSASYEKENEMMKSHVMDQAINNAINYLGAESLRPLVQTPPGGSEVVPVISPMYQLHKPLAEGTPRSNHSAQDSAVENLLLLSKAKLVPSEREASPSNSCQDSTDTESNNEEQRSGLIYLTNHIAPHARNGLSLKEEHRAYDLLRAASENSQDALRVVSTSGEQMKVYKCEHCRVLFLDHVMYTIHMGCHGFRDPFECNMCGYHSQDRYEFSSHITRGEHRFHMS
T2 sequence (Q96SW2 whole entry): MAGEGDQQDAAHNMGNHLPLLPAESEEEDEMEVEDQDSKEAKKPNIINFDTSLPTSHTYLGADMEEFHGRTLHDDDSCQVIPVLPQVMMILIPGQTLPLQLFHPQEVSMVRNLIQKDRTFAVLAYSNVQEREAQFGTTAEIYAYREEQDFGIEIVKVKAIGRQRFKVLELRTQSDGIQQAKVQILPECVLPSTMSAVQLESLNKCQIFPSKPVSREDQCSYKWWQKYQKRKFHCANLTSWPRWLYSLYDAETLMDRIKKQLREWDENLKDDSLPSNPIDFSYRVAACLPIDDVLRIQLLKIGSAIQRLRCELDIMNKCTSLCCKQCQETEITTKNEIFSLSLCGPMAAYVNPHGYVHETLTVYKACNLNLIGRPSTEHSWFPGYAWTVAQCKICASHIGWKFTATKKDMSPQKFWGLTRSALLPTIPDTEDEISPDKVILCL
T2 sequence (Q16531 whole entry partner): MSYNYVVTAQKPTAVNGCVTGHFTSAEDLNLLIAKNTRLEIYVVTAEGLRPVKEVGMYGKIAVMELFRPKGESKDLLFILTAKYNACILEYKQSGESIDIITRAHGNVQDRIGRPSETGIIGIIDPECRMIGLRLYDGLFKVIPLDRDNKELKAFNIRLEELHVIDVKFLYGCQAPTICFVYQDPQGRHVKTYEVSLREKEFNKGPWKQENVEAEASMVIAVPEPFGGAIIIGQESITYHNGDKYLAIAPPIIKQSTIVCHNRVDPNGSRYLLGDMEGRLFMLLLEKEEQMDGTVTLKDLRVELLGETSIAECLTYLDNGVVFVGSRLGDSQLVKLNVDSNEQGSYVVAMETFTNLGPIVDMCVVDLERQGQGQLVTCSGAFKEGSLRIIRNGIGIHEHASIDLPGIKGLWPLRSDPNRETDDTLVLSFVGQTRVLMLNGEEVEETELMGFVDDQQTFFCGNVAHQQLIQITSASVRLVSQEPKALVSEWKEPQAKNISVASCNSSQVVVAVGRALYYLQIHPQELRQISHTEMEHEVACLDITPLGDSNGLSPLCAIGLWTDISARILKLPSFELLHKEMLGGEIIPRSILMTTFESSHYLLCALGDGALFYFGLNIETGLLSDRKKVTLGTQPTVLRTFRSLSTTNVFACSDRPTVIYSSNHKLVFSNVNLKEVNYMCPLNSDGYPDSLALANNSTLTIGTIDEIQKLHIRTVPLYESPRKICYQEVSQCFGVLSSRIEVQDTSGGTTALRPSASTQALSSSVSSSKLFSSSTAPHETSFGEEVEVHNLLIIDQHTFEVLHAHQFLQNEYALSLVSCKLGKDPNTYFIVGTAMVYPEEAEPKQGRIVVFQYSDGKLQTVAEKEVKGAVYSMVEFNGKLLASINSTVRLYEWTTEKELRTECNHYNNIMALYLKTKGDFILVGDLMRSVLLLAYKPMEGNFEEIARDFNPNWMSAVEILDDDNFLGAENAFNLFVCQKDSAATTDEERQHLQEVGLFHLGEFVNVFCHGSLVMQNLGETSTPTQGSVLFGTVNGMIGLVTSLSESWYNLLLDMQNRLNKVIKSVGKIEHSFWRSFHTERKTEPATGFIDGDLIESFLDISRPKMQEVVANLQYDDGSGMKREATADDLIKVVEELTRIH
Put plainly: Quantification of Ikaros degradation in OCI-LY10 cells (quantitative immunoblotting). To be noted: 6 h treatment. Here is the method:
(§1) Degradation of Ikaros (protein product of gene IKZF1) and Aiolos (protein product of gene IKZF3) were determined by quantitative immunoblotting as follows. OCI-LY10 cells, 2×10^6 cells/well, were treated with listed concentrations of IRAK4 degraders or control compounds in 6 well plates for 6 h. Cells were collected, washed with cold PBS, lysed in RIPA buffer (Boston BioProducts BP-115D) with protease/phosphatase inhibitor cocktail (Roche 05892791001/Roche 04906837001) and centrifuged at 13000 RPM for 20 min to precipitate insoluble material. The supernatant fraction was diluted in SDS-PAGE loading buffer (Beyotime Bio P0015) and 20 μL of each sample was resolved on 4-12% Bis-Tris SDS-PAGE gels (Novex, WG1402BOX). Resolved samples were transferred to nitrocellulose membranes by wet electro-transfer method at 250 mV for 1.5 h. The membrane was blocked with LICOR blocking buffer (LI-COR, 927-50000) for 1 hour, washed three times with TBST (CST #99975) for 5 minutes each and incubated with primary antibody prepared in block buffer with 0.1% Tween-20 (Solarbio, P8220) at 4° C. overnight. Ikaros antibody was rabbit monoclonal D6N9Y (CST #14859), at 1:1000 dilution. Aiolos antibody was rabbit monoclonal D1C1E (CST #15103), at 1:1000 dilution. Signal was normalized to mouse anti-beta-Actin monoclonal 8H10D10 (CST #3700) used at 1:10,000 dilution. After incubation in primary antibodies, membranes were washed three times with TBST, 5 minutes each, incubated with fluorescently labeled secondary antibodies anti-rabbit IgG (Licor, 926-32211) at 1:5000 dilution; anti-mouse IgG (LI-COR, 926-68070) at 1:5000 dilution, for 1 hour at RT. After incubation in secondary, membranes were washed three times with TBST, 5 minutes each and read on LICOR Odyssey imager. Data was reported as signal for Ikaros or Aiolos relative to signal for actin, and normalized to DMSO-treated control.
In general terms: A western blot detects proteins with antibodies after separation by electrophoresis.

Assay [4] has as its target T3, Aiolos (protein product of gene IKZF3) (Homo sapiens, UniProt Q96SW2+Q9UKT9).
T3 construct: endogenous in cells; host or cells: OCI-LY10
Put plainly: Quantification of Aiolos degradation in OCI-LY10 cells (quantitative immunoblotting). To be noted: 6 h treatment. The procedure:
as §1

T3 sequence (Q9UKT9 whole entry): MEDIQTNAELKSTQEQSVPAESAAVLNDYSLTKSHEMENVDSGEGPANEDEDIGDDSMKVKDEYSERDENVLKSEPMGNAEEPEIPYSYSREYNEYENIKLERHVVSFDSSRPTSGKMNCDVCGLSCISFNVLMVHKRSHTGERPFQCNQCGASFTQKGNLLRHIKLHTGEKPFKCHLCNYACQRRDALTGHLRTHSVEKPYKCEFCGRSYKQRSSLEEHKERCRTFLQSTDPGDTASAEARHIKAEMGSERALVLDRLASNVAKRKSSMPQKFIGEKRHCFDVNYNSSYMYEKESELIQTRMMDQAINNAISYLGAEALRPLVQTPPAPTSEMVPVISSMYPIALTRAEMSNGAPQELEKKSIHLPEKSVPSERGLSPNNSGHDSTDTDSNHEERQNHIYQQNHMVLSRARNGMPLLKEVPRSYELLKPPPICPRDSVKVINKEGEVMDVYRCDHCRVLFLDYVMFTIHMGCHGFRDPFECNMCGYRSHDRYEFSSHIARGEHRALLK
T3 sequence (Q96SW2 whole entry): as the sequence (Q96SW2 whole entry) above
T3 sequence (Q16531 whole entry partner): as the sequence (Q16531 whole entry partner) above

As usually defined, the IC50 is the concentration needed to halve the response being measured. The term DC50 denotes the concentration giving 50% degradation. On to `Cc1cccc(C(=O)Nc2cc3sc([C@H]4CC[C@H](CN(C)[C@H]5CC[C@H](Nc6cccc7c6C(=O)N(C6CCC(=O)NC6=O)C7=O)CC5)CC4)nc3cc2C(C)(C)O)n1` (stereo partly shown) [I-23], for which the IC50 in assay [1] fell in the range of 100 to 500 nM. For the same molecule, the figures for the DC50 in assay [2], in assay [3] and in assay [4] were less than 50 nM, 100 to 500 nM and less than 50 nM, respectively.

`CC(C)(O)c1cc2nc([C@H]3CC[C@H](CN4CC5(CC(CCNc6cccc7c6C(=O)N(C6CCC(=O)NC6=O)C7=O)C5)C4)CC3)sc2cc1NC(=O)c1ccc(C(F)(F)F)nn1` (stereo partly shown) [I-55] came in with an IC50 in assay [1] of less than 50 nM. The 50% degradation concentration (DC50) in assay [2] is greater than 1000 nM; in assay [3], less than 50 nM; in assay [4] it was less than 50 nM.

For `CC1(C)OC2(C)c3ccccc3CCN2c2cc3sc([C@H]4CC[C@H](CN5CC6(CC(CCNc7cccc8c7C(=O)N(C7CCC(=O)NC7=O)C8=O)C6)C5)CC4)nc3cc21` (stereo partly shown) [I-49], in assay [1], the IC50 fell in the range of 50 to 100 nM. Besides, the 50% degradation concentration (DC50) was greater than 1000 nM in assay [2], less than 50 nM in assay [3] and less than 50 nM in assay [4].

In assay [1], `Cc1cc(F)cc(C(=O)Nc2cc3sc([C@H]4CC[C@H](CN5CC6(CC(CCNc7cccc8c7C(=O)N(C7CCC(=O)NC7=O)C8=O)C6)C5)CC4)nc3cc2C(C)(C)O)n1` (stereo partly shown) [I-33] had an IC50 of less than 50 nM. Also, the DC50 in assay [2], in assay [3] and in assay [4] was less than 50 nM throughout.

Regarding `CN(C[C@H]1CC[C@H](c2nc3cc(C(C)(C)O)c(NC(=O)c4cccc(C(F)(F)F)n4)cc3s2)CC1)[C@H]1CC[C@H](CNc2cccc3c2C(=O)N(C2CCC(=O)NC2=O)C3=O)CC1` (stereo partly shown) [I-41], in assay [1], the IC50 is less than 50 nM. The 50% degradation concentration (DC50) in assay [2], in assay [3] and in assay [4] was less than 50 nM in each case.

In turn, `CC(C)(O)c1cc2nc([C@H]3CC[C@H](CN4CC5(CC(CCNc6cccc7c6C(=O)N(C6CCC(=O)NC6=O)C7=O)C5)C4)CC3)sc2cc1-n1ccc2ccccc2c1=O` (stereo partly shown) [I-40] displayed an IC50 in assay [1] of less than 50 nM. Besides, the DC50 in assay [2] is 100 to 500 nM; in assay [3], less than 50 nM; in assay [4], less than 50 nM.

Consider `CC(C)(O)c1cc2nc([C@H]3CC[C@H](CN4CC5(CC(CCNc6cccc7c6C(=O)N(C6CCC(=O)NC6=O)C7=O)C5)C4)CC3)sc2cc1NC(=O)c1cccc(C(C)(F)F)c1` (stereo partly shown) [I-50], for which, in assay [1], the concentration for half-maximal inhibition (IC50) is less than 50 nM. Further, the DC50 in assay [2] is 500 to 1000 nM; in assay [3] it was less than 50 nM; in assay [4] it was less than 50 nM.

In turn, `CN(C[C@H]1CC[C@H](c2nc3cc(C(C)(C)O)c(NC(=O)c4cccc(C(F)(F)F)n4)cc3s2)CC1)[C@H]1CC[C@H](CCNc2cccc3c2C(=O)N(C2CCC(=O)NC2=O)C3=O)CC1` (stereo partly shown) [I-27] gave an IC50 in assay [1] of less than 50 nM. Also, the DC50 in assay [2], in assay [3] and in assay [4] was less than 50 nM throughout.

Regarding `CC(C)(O)c1cc2nc([C@H]3CC[C@H](N4CC5(CC(CCNc6cccc7c6C(=O)N(C6CCC(=O)NC6=O)C7=O)C5)C4)CC3)sc2cc1NC(=O)c1cccc(C(F)(F)F)n1` (single isomer, unassigned) [I-63], the half-maximal inhibitory concentration (IC50) in assay [1] is less than 50 nM. Further, the DC50 in assay [2], in assay [3] and in assay [4] was less than 50 nM throughout.

Take `CC(C)(O)c1cc2nc([C@H]3CC[C@H](CN4CC5(CC(CCNc6cccc7c6C(=O)N(C6CCC(=O)NC6=O)C7=O)C5)C4)CC3)sc2cc1NC(=O)c1ccnc(C(F)(F)F)n1` (stereo partly shown) [I-54]: in assay [1], the IC50 is less than 50 nM. Besides, the DC50 in assay [2] is 100 to 500 nM; in assay [3], less than 50 nM; in assay [4] it was less than 50 nM.

On to `CN(C[C@H]1CC[C@H](c2nc3cc(C(C)(C)O)c(NC(=O)c4cccc(C(F)(F)F)n4)cc3s2)CC1)[C@H]1CC[C@@H](CCNc2cccc3c2C(=O)N(C2CCC(=O)NC2=O)C3=O)CC1` (stereo partly shown) [I-46], for which, in assay [1], the IC50 is less than 50 nM. The DC50 was 50 to 100 nM in assay [2], less than 50 nM in assay [3] and less than 50 nM in assay [4].

On to `COc1cc2nc([C@H]3CC[C@H](CN4CC5(CC(CCNc6cccc7c6C(=O)N(C6CCC(=O)NC6=O)C7=O)C5)C4)CC3)sc2cc1-n1ccc2ccccc2c1=O` (stereo partly shown) [I-42], for which the IC50 in assay [1] was less than 50 nM. Also, the figures for the DC50 in assay [2], in assay [3] and in assay [4] were 50 to 100 nM, less than 50 nM and less than 50 nM, respectively.

On to `CN(C[C@H]1CC[C@H](c2nc3cc(C(C)(C)O)c(NC(=O)c4cccc(C(F)(F)F)n4)cc3s2)CC1)[C@H]1CC[C@]2(CC1)C[C@@H](CNc1cccc3c1C(=O)N(C1CCC(=O)NC1=O)C3=O)C2` (stereo partly shown) [I-25], for which, in assay [1], the IC50 was less than 50 nM. The DC50 in assay [2] was 50 to 100 nM; in assay [3], less than 50 nM; in assay [4] it was less than 50 nM.

The molecule `C[C@H](CNc1cccc2c1C(=O)N(C1CCC(=O)NC1=O)C2=O)C1CC2(C1)CN(C[C@H]1CC[C@H](c3nc4cc(C(C)(C)O)c(NC(=O)c5cccc(C(F)(F)F)n5)cc4s3)CC1)C2` (stereo partly shown) [I-31] had an IC50 in assay [1] of less than 50 nM. Also, the DC50 in assay [2], in assay [3] and in assay [4] was less than 50 nM throughout.

In assay [1], `COc1cc2nc([C@H]3CC[C@H](CN4CCC5(CC4)CC(Nc4cccc6c4C(=O)N(C4CCC(=O)NC4=O)C6=O)C5)CC3)sc2cc1NC(=O)c1cnn2cccnc12` (stereo partly shown) [I-34] yielded a half-maximal inhibitory concentration (IC50) of 50 to 100 nM. The DC50 in assay [2], in assay [3] and in assay [4] was less than 50 nM throughout.

On to `CC(C)(O)c1cc2nc([C@H]3CC[C@H](CN4CCC5(CC4)CC(CNc4cccc6c4C(=O)N(C4CCC(=O)NC4=O)C6=O)C5)CC3)sc2cc1NC(=O)c1cccc(C(F)(F)F)n1` (stereo partly shown) [I-29], for which the IC50 in assay [1] was less than 50 nM. Further, the DC50 in assay [2], in assay [3] and in assay [4] was less than 50 nM each time.
